# Earlier results in patent US20210330903A1, “Multiple Dose Nasal Spray of Naloxone” (Navinta III Inc, priority 2020, published 2021).
compound,measurement,setting,value
"C=CCN1CC[C@]23c4c5ccc(O)c4O[C@H]2C(=O)CC[C@@]3(O)[C@H]1C5.Cl [Naloxone hydrochloride, 17-Allyl-4,5α-epoxy-3,14 dihydroxymorphinan-6-one hydrochloride]",solubility in alcohol,alcohol,slightly soluble
same,solubility in chloroform,chloroform,practically insoluble
same,solubility in dilute acids,dilute acids,soluble
same,solubility in ether,ether,practically insoluble
same,solubility in strong alkali,strong alkali,soluble
same,solubility in water,water,soluble
